# Values joined by “and” are separate entries in the source; they are usually repeats but may differ in a detail not shown here. Identical values can stand only once.
# Key:
# db/db mice [1] = test: Weekly fasting glucose levels of db/db mice; type: in vivo; details: for Weekly fasting glucose levels of db/db mice (Figure 5a): individual mice 1-10, in mmol/L; for Fasting blood glucose level at the end of the treatment: mouse, in vivo
# Experimental: (§1) The lean wild type control and the db/db control mice were given equal vehicle volume (0.5% CMC-Na solution). All mice were monitored for food intake, body weight, and fasting blood glucose during the 35-day trial. Glucose tolerance test (GTT) and insulin resistance test (ITT) were performed at 4 and 5 weeks of treatment, respectively. Metabolic analysis was performed at 5 weeks of treatment. At the end of the study, blood samples were taken through the retroorbital venous sinus of mice, fat depots (brown fat, inguinal subcutaneous fat, epididymal fat, perirenal fat and mesenteric fat depot) were dissected, weighed, and immediately frozen in liquid nitrogen and stored at −80 °C until required. Weight of fat depots are expressed in percentage (fat depots weight /bodyweight * 100%).
# [2] = pH of the solution after 24 hours of the dissolution test; type: physicochemical
# Experimental: Solubilities were determined by adding excess sample to 30 mL different mediums, such as HCl solution, acetate buffer, phosphate buffer, SGF, FaSSIF and FeSSIF. The configuration of various buffer solutions is shown in Supplementary Table 2. After being shaken at 400 rpm at 37 °C for 0.5, 1, 2, and 24 h, 0.3 mL of suspension was sampled and centrifuged at 14,000 rpm for 8 min to isolate mother liquor, and then analyzed by HPLC after dilution. All samples were analyzed in triplicate. […]
# into a 1000 mL flask followed by addition of about 800 mL of deionized water. The mixture is stirred until all solids are dissolved.
# Add about 100 mL of 0.1 N HCl, check pH value with a pH meter and adjust the pH to 2.0 with HCl (1 N) or NaOH (1 N). Then dilute to the volume with deionized water.
# * 1N sodium hydroxide: Weigh 8 g NaOH in a 200 mL plastic volumetric flask, add deionized water to volume and mix well. […]
# phosphate and 3.093 g sodium chloride in a 500 mL volumetric flask, add about 0.450 L deionized water, and adjust the pH to 6.5 with 1N sodium hydroxide or 1 N hydrochloric acid. Make up to volume (0.5 […]
# Step 2: Place and dissolve 1.120 g FaSSIF/FeSSIF/FaSSGF instant powder with 0.250 L of buffer (from step 1) in a 500 mL volumetric flask, then add buffer (from step 1) to volume, and mix well. […]
# g sodium chloride in a 500 mL volumetric flask, add about 0.450 L deionized water, and adjust the pH to 5.0 with 1 N sodium hydroxide or 1 N hydrochloric acid. Make up to volume (500 mL) with
# Step 2: Place and dissolve 5.600 g FaSSIF/FeSSIF/FaSSGF instant […]
# 0.750 L deionized water. Make up to volume (1000 mL) with deionized water and placed overnight.
# (1 picture or pasted object on this page, not shown here)
# db/db mice [3] = test: Fat depots weight (BAT, iWAT, eWAT; percentage of body weight); type: in vivo; parameters: key to BAT fat depot weight (Figure 4c): % of body weight (fat depot weight / body weight * 100%); details: db/db mice; for eWAT fat depot weight (Figure 4c) / iWAT fat depot weight (Figure 4c): in %; for Fat depots weight / body weight: individual mice
# Experimental: as §1
# db/db mice [4] = test: Glucose tolerance test (GTT); type: in vivo; details: BJ 75mg/kg, mean of 10 mice
# [5] = BJ 75mg/kg, individual mice 1-10
# [6] = BJ 150mg/kg, individual mice 1-10
smiles,measurement,setting,value
"CC(C)Cc1ccc(C(C)C(=O)[O-])cc1.COc1ccc2cc3[n+](cc2c1OC)CCc1cc2c(cc1-3)OCO2.O.O.O.O [BJ, berberine-ibuprofen]",Weekly fasting glucose levels of db/db mice (Figure 5a),"db/db mice [1]; BJ 75mg/kg, 1st of 6 weekly columns (time not given)",10.4 and 12.5 and 9.4 and 17.8 and 11.6 and 18.6 and 12.1 and 17.5 and 20.6 and 14.4
same,Weekly fasting glucose levels of db/db mice (Figure 5a),"db/db mice [1]; BJ 75mg/kg, 2nd of 6 weekly columns (time not given)",21.7 and 12.2 and 16.6 and 18.3 and 16.2 and 21.2 and 15.0 and 18.5 and 24.4 and 17.9
same,Weekly fasting glucose levels of db/db mice (Figure 5a),"db/db mice [1]; BJ 75mg/kg, 3rd of 6 weekly columns (time not given)",27.0 and 17.1 and 16.6 and 26.0 and 22.1 and 24.6 and 22.7 and 19.1 and 24.8 and 20.1
same,Weekly fasting glucose levels of db/db mice (Figure 5a),"db/db mice [1]; BJ 75mg/kg, 4th of 6 weekly (time not given)",16.0 and 19.4 and 17.3 and 23.1 and 21.0 and 18.7 and 20.0 and 16.7 and 18.3 and 19.6
same,Weekly fasting glucose levels of db/db mice (Figure 5a),"db/db mice [1]; BJ 75mg/kg, 5th of 6 weekly (time not given)",8.5 and 16.1 and 10.1 and 17.8 and 19.9 and 13.5 and 18.2 and 12.3 and 18.1 and 11.2
same,Weekly fasting glucose levels of db/db mice (Figure 5a),"db/db mice [1]; BJ 75mg/kg, 6th of 6 weekly (time not given)",8.3 and 14.2 and 11.5 and 16.0 and 17.3 and 15.9 and 14.1 and 11.0 and 16.7 and 10.7
same,Weekly fasting glucose levels of db/db mice (Figure 5a),"db/db mice [1]; BJ 150mg/kg, 1st of 6 weekly columns (time not given)",19.4 and 13.4 and 14.8 and 9.9 and 15.4 and 23.3 and 12.6
same,Weekly fasting glucose levels of db/db mice (Figure 5a),"db/db mice [1]; BJ 150mg/kg, 2nd of 6 weekly columns (time not given)",13.5 and 10.8 and 19.3 and 10.6 and 16.2 and 16.8 and 22.9 and 16.4
same,Weekly fasting glucose levels of db/db mice (Figure 5a),"db/db mice [1]; BJ 150mg/kg, 3rd of 6 weekly columns (time not given)",19.8 and 11.7 and 18.2 and 15.6 and 20.6 and 18.3
same,Weekly fasting glucose levels of db/db mice (Figure 5a),"db/db mice [1]; BJ 150mg/kg, 4th of 6 weekly (time not given)",11.5 and 5.7 and 10.5 and 13.7 and 14.1 and 14.7
same,Weekly fasting glucose levels of db/db mice (Figure 5a),"db/db mice [1]; BJ 150mg/kg, 5th of 6 weekly (time not given)",6.7 and 14.3 and 13.7 and 9.3 and 8.8 and 13.9
same,Weekly fasting glucose levels of db/db mice (Figure 5a),"db/db mice [1]; BJ 150mg/kg, 6th of 6 weekly (time not given)",6.5 and 5.0 and 10.0 and 11.4 and 7.4 and 7.3 and 17.8
same,Blood (serum) glucose levels compared with vehicle,"db/db mice [1]; db/db mice, BJ 75 and 150 mg/kg, BBR 150 mg/kg, Ibu 150 mg/kg",slowed the increase in glucose levels
same,Fasting blood glucose level at the end of the treatment,db/db mice [1]; 75 mg/kg,13.6 ± 3.0 mmol/L
same,Fasting blood glucose level at the end of the treatment,db/db mice [1]; 150 mg/kg,9.4 ± 3.6 mmol/L
same,pH of the solution after 24 hours,"[2]; Acetate buffer, blank vehicle 4.54",4.82
same,pH of the solution after 24 hours,"[2]; CMC-Na, blank vehicle 6.51",6.70
same,pH of the solution after 24 hours,"[2]; FaSSIF-v1, blank vehicle 6.51",5.50
same,pH of the solution after 24 hours,"[2]; FeSSIF-v1, blank vehicle 5.04",5.17
same,pH of the solution after 24 hours,"[2]; HCl solution, blank vehicle 1.08",1.03
same,pH of the solution after 24 hours,"[2]; Phosphate buffer, blank vehicle 6.84",6.90
same,pH of the solution after 24 hours,"[2]; SGF, blank vehicle 2.03",5.38
same,BAT fat depot weight (Figure 4c),db/db mice [3]; [5],1.4827 and 0.5576 and 2.7679 and 1.5898 and 1.8729 and 1.268 and 0.7299 and 1.4681 and 1.4209 and 1.9195
same,eWAT fat depot weight (Figure 4c),db/db mice [3]; [5],2.9499 and 3.004 and 3.3073 and 3.0683 and 2.8654 and 1.9039 and 2.9972 and 3.1786 and 2.5863 and 2.885
same,iWAT fat depot weight (Figure 4c),db/db mice [3]; [5],2.9834 and 2.2193 and 4.5703 and 3.1934 and 4.0303 and 2.1465 and 2.6777 and 3.7948 and 2.2136 and 4.2859
same,eWAT fat depot weight (Figure 4c),db/db mice [3]; [6],2.6032 and 2.4699 and 2.5757 and 2.9739 and 2.5582 and 2.4535 and 2.305 and 2.1485 and 2.4952 and 2.1171
same,iWAT fat depot weight (Figure 4c),db/db mice [3]; [6],2.0087 and 2.2014 and 2.1848 and 3.5434 and 3.664 and 1.962 and 0.513 and 2.1562 and 2.8234 and 1.567
same,Fat depots weight / body weight,"db/db mice [3]; 75 mg/kg for 35 days, 75 mg/kg",17.3087% and 20.1428% and 17.1651% and 21.4638% and 17.3569% and 14.6768% and 23.7077% and 20.828% and 19.5629% and 16.4679%
same,Fat depots weight / body weight,"db/db mice [3]; 150 mg/kg for 35 days, 150 mg/kg",11.5274% and 15.536% and 18.4944% and 12.6638% and 16.2402% and 14.3781% and 12.8992% and 19.8596% and 21.4381% and 12.5947%
same,Fat depots weight compared with vehicle,"db/db mice [3]; BJ 75 and 150 mg/kg, BBR 150 mg/kg, Ibu 150 mg/kg",lower fat depots weight than vehicle-treated db/db mice
same,"blood glucose level, mean",db/db mice [4]; time column 1 of 7 (time not printed),20.5 mmol/L
same,"blood glucose level, mean",db/db mice [4]; time column 2 of 7 (time not given),26.6 mmol/L
same,"blood glucose level, mean",db/db mice [4]; time column 3 of 7 (time not given),31.4 mmol/L
same,"blood glucose level, mean",db/db mice [4]; time column 4 of 7 (time not given),32 mmol/L
same,"blood glucose level, mean",db/db mice [4]; time column 5 of 7 (time not given),31.2 mmol/L
same,"blood glucose level, mean",db/db mice [4]; time column 6 of 7 (time not given),28.2 mmol/L
same,"blood glucose level, mean",db/db mice [4]; time column 7 of 7 (time not printed),23.2 mmol/L

# — paper PMC9374667 (Communications Biology, 2022)
